Measurements: patent US20090298169A1, “Pancreatic and Liver Endoderm Cells and Tissue by Differentiation of Definitive Endoderm Cells Obtained from Human Embryonic Stems” (The University of Georgia Research Foundation, priority 2006, published 2009)

Legend:
[1] = test system: BG01 cells; assay: Flow cytometry of cell surface markers (CD9) on inhibitor treated BG01 cells; format: cell-based, human
Method: (§1) The inhibitor studies are performed as described in Example 2.
For flow cytometry, the BG01 cells are washed with 1×PBS and fixed in 2% paraformaldehyde/1×PBS for 10 minutes at room temperature. The cells are then washed in 1×PBS and approximately 2×10^5 cells are incubated with primary antibody diluted in 1% BSA/1×PBS. The primary antibodies used are anti-CD9 and anti-thrombomodulin (Cymbus Biotechnology), FITC conjugated mouse monoclonal antibodies at a 1:10 dilution. Cells are incubated at 4° C. for 30 minutes and then washed twice in 1×PBS. Where appropriate, cells are resuspended in a secondary antibody, anti-mouse Alexa-488 (Molecular Probes) diluted 1:1000 in 1% BSA/PBS, incubated at 4° C. for 30 minutes, and then washed twice in 1×PBS. Cells are resuspended in 1% BSA/1×PBS and surface expression is analyzed using a Beckman Coulter FC500.

[2] = test system: PI3-kinase signaling pathway; assay: Western blot analysis of PI3-kinase signaling pathway activity (phosphorylated PKB/Akt, S6 kinase, S6 protein); format: cell-based, human; settings: BG01 cells maintained in the presence of inhibitor
Method: Activity of the PI3-kinase signaling pathway may be assessed by Western blot analysis. Briefly, detergent extracts are prepared from untreated and treated cell cultures, separated by SDS-PAGE and blotted to nitrocellulose. Expression of active forms of the PI3-kinase intracellular targets PKB/Akt, S6 kinase and S6 protein are then determined by probing the nitrocellulose with appropriate antibodies to phosphorylated forms of each of these proteins. Generally, 30 μg of total protein are evaluated for each sample, primary incubations were carried out at a 1:1000 dilution of antibody, and binding in each case is detected by standard ECL based methodology.

[3] = test system: BG01 cells; assay: RT-PCR analysis of differentiation markers in inhibitor treated BG01 cells; format: cell-based, human
Method: as §1
Total RNA is isolated using TRIzol Reagent (GibcoBRL). RNA is run on a 1% agarose gel containing ethidium bromide and visualized using the AlphaImager™ 2200 Documentation and Analysis System to ensure RNA integrity. 10 μg of RNA is treated with DNase (Ambion), which is removed with DNase Inactivation Reagent (Ambion). cDNA is prepared with 500 ng of total RNA using the Superscript II Reverse transcriptase Kit (Invitrogen) using oligo(dT) primers. PCR reactions are carried out on 1 μl of cDNA. PCR products are run on a 2% agarose gel containing ethidium bromide and visualized using the Alphaamager™ 2200 Documentation and Analysis System. PCR primer sets used were GATA4, Mix1, Msx1, AFP, HNF4alpha, eHAND, Nanog, AFP and GAPDH.

[4] = test system: BG01 cells; assay: Morphology of BG01 hES cells cultured with PI3-kinase pathway inhibitors (standard microscopy); format: cell-based, human
Method: BG01 cells are passaged from feeders using the collagenase/trypsin method and are plated on matrigel coated dishes at 1×10^5 cells/35 mm dish in conditioned medium (CM; MEF conditioned medium plus 8 ng/ml bFGF). After approximately 24 hours, the media is replaced with fresh CM, CM with inhibitor (resuspended in EtOH), CM with EtOH, or with Spontaneous Differentiation medium (hES medium minus bFGF).
In alternative methods, the BG01 cells may be plated at different concentrations prior to contact with CM, CM with inhibitor and CM with EtOH Cells may be plated at the following concentrations: approximately 5×10^4 cells/35 mm dish, approximately 1×10^5 cells/35 mm dish, approximately 2×10^5 cells/35 mm dish, approximately 4×10^5 cells/35 mm dish and, approximately 6×10^5 cells/35 mm dish.
The inhibitor LY 294002 (Biomol) may be preferably used at the concentration range approximately 20-163 μM and the inhibitor Rapamycin (Calbiochem) is used at the concentration range approximately 1.5-30 nM. LY 294002 inhibits the PI3-kinase pathway by binding to the ATP docking site of p110. Rapamycin inhibits a subset of the PI3-kinase pathway by inhibiting mTOR (mammalian target of rapamycin).
Cells are grown in these conditions for approximately 72 hours with a medium change every 24 hours. Cells are harvested using the collagenase/trypsin method for flow cytometry and RT-PCR analysis and are scraped for biochemical analysis.
In undifferentiated cultures, individual cells are not easily discernable, being relatively small, irregular and without clearly apparent intercellular junctions at higher density. […] Individual cells are also more readily discernable at higher densities since discrete intercellular adhering junctions are evident between neighboring cells.

[5] = test system: human definitive endoderm cells (DE); assay: Pancreatic endoderm formation from definitive endoderm with retinoic acid in FCS base media (Pdx1, Isl1 markers); format: cell-based
Method: (§2) BG01 hESCs were treated with LY 294002 (50 μM) for four days then switched to media containing DMEM/F12, 10% FCS, 50 ng/ml Fgf10 and 2 μM retinoic acid for up to four days. Untreated-untreated hESCs. Transcript levels were analyzed by QRT-PCR in triplicate and shown as the fold-increase over untreated samples (hESCs) after normalization to GAPDH reference transcript. Fold-induction of Pdx1 transcript levels are indicated.
as §2, with “consisting of” for “containing”, “Untreated: untreated” for “Untreated-untreated”, “transcript.” for “transcript. Fold-induction of Pdx1 transcript levels are indicated.”
The present invention relates to pancreatic endoderm cells (PE) which are obtained from definitive endoderm cells by exposing the definitive endoderm cells to an effective concentration of retinoic acid (at least about 0.05-0.1 μg/ml, preferably about 0.1-25 μg/ml, more preferably about 0.1-2.0 μg/ml) in base media comprising an effective amount of fetal calf serum (FCS— preferably about 10% of the base media plus serum) for a period of at least about 2 days, preferably at least about 4 days, and more preferably about 4 days, followed by exposing the cells obtained from the first step to FCS (preferably, about 10%) in base media for at least one day, preferably at least about 2 days in the absence of retinoic acid. This method preferably results in at least about 35-50% and preferably at least about 70-80+% of the cells in the treated sample expressing the pancreatic endoderm markers, Pdx1 and Isl1.
Definitive endoderm cells (from treatment above) are washed 2× with PBS. 2-3 ml Trypsin/EDTA solution is added and cells are triturated and collected in a 15 ml conical tube. DMEM/F12 with 10% FBS is added to stop the trypsinization and the cells are centrifuged at 200×g for 5 minutes. […]

[6] = test system: BG01 hESCs; assay: AFP transcript induction (QRT-PCR) following treatment of definitive endoderm; format: cell-based, human; settings: DE from LY 294002 (50 μM, four days), then DMEM/F12, 10% FCS up to six more days, presence or absence of Fgf10
Method: (§3) BG01 hESCs were differentiated into definitive endoderm for four days following the addition of LY 294002 (50 μM). Media was changed to DMEM/F12, 10% FCS and cells grown for up to six more days. Untreated: untreated hESCs. AFP transcript levels were analyzed by QRT-PCR in triplicate and shown as the fold-increase over untreated samples (hESCs) after normalization to GAPDH reference transcript.
as §3, with “The first example relates to the generation of cells expressing the embryonic liver marker alphafetoprotein (AFP) following treatment of definitive endoderm. BG01” for “BG01”

O=c1cc(N2CCOCC2)oc2c(-c3ccccc3)cccc12 [LY 294002, 2-(4-Morpholinyl)-8-phenyl-4H-1-benzopyran-4-one]
cell surface CD markers expressed by undifferentiated hES cells (CD9, 27, 30, 46, 58 and 81) ([1]; after LY treatment): loss of a subset of cell surface CD markers
expression of CD9 ([1]; compared with spontaneous differentiation in adherent culture or embryoid bodies): may decrease more rapidly
activity of Akt [2]: inhibited
activity of S6 [2]: inhibited
activity of S6 kinase [2]: inhibited
markers indicative of early differentiation [3]: may be detected
cell spreading and morphology after treatment ([4]; BG01 cells after treatment, compared with undifferentiated cultures): marked spreading and adopted obvious epitheloid cuboidal morphologies
changes in morphology at high plating density ([4]; cells plated at approximately 4×10^5 cells/35 mm dish or higher): do not demonstrate the same morphological changes
changes in morphology at low plating density ([4]; cells plated lower than approximately 2×10^5 cells/35 mm dish): display changes in morphology
morphological change of BG01 cells ([4]; cultured in the presence of inhibitor, matrigel, conditioned medium, approximately 72 hours): undergo morphological change

CC1=C(/C=C/C(C)=C/C=C/C(C)=C/C(=O)O)C(C)(C)CCC1 [retinoic acid, all-trans retinoic acid]
homogeneity of differentiated cells ([5]; definitive endoderm cells cultured with retinoic acid in basal cell media): greater homogeneity than spontaneously differentiated cells
Isl1 expression ([5]; following treatment): marked increase
population of cells pure for the PE markers Pdx1 and Isl1 ([5]; from definitive endoderm cells): 70-80%

B1: Fgf10: fibroblast growth factor 10 (protein, UniProt O15520 38-208, looked up)
Fibroblast growth factor 10: QALGQDMVSPEATNSSSSSFSSPSSAGRHVRSYNHLQGDVRWRKLFSFTKYFLKIEKNGKVSGTKKENCPYSILEITSVEIGVVAVKAINSNYYLAMNKKGKLYGSKEFNNDCKLKERIEENGYNTYASFNWQHNGRQMYVALNGKGAPRRGQKTRRKNTSAHFLPMVVHS
AFP induction [6]: optimal AFP induction
